Test results as given in PubChem BioAssay AID1259407 (Chemical Carcinogenesis Research Information System (CCRIS), 2018).
Activity calls are given as the source filed them. The rule behind the calls is not given here.

System: CCRIS mutagenicity, Ames/micronucleus/aberration tests
Experiment: CCRIS mutagenicity studies

## CC1=CC(=O)c2c(O)cccc2C1=O
Test System: AMES SALMONELLA TYPHIMURIUM, Strain/Indicator: TA97, Metabolic Activation: NONE, Method: PREINCUBATION
  mutagenic call: active; positive
Test System: AMES SALMONELLA TYPHIMURIUM, Strain/Indicator: TA97, Metabolic Activation: RAT, LIVER, S-9, PHENOBARBITAL AND 5,6-BENZOFLAVONE, Method: PREINCUBATION
  mutagenic call: active; positive
Test System: AMES SALMONELLA TYPHIMURIUM, Strain/Indicator: TA98, Metabolic Activation: HAMSTER LIVER S-9, AROCLOR 1254, Method: STANDARD PLATE
  mutagenic call: inactive; negative
Test System: AMES SALMONELLA TYPHIMURIUM, Strain/Indicator: TA98, Metabolic Activation: NONE, Method: PREINCUBATION
  mutagenic call: inactive; negative
Test System: AMES SALMONELLA TYPHIMURIUM, Strain/Indicator: TA98, Metabolic Activation: NONE, Method: STANDARD PLATE
  mutagenic call: inactive; negative
Test System: AMES SALMONELLA TYPHIMURIUM, Strain/Indicator: TA98, Metabolic Activation: RAT LIVER S-9, AROCLOR 1254, Method: STANDARD PLATE
  mutagenic call: inactive; negative
Test System: AMES SALMONELLA TYPHIMURIUM, Strain/Indicator: TA98, Metabolic Activation: RAT, LIVER, S-9, PHENOBARBITAL AND 5,6-BENZOFLAVONE, Method: PREINCUBATION
  mutagenic call: inactive; negative
Test System: AMES SALMONELLA TYPHIMURIUM, Strain/Indicator: TA100, Metabolic Activation: HAMSTER LIVER S-9, AROCLOR 1254, Method: STANDARD PLATE
  mutagenic call: inactive; negative
Test System: AMES SALMONELLA TYPHIMURIUM, Strain/Indicator: TA100, Metabolic Activation: NONE, Method: PREINCUBATION
  mutagenic call: inactive; negative
Test System: AMES SALMONELLA TYPHIMURIUM, Strain/Indicator: TA100, Metabolic Activation: NONE, Method: STANDARD PLATE
  mutagenic call: inactive; negative
Test System: AMES SALMONELLA TYPHIMURIUM, Strain/Indicator: TA100, Metabolic Activation: RAT LIVER S-9, AROCLOR 1254, Method: STANDARD PLATE
  mutagenic call: inactive; negative
Test System: AMES SALMONELLA TYPHIMURIUM, Strain/Indicator: TA100, Metabolic Activation: RAT, LIVER, S-9, PHENOBARBITAL AND 5,6-BENZOFLAVONE, Method: PREINCUBATION
  mutagenic call: active; positive
Test System: AMES SALMONELLA TYPHIMURIUM, Strain/Indicator: TA102, Metabolic Activation: NONE, Method: PREINCUBATION
  mutagenic call: inactive; negative
Test System: AMES SALMONELLA TYPHIMURIUM, Strain/Indicator: TA102, Metabolic Activation: NONE, Method: STANDARD PLATE
  mutagenic call: inactive; negative
Test System: AMES SALMONELLA TYPHIMURIUM, Strain/Indicator: TA102, Metabolic Activation: RAT, LIVER, S-9, PHENOBARBITAL AND 5,6-BENZOFLAVONE, Method: PREINCUBATION
  mutagenic call: inactive; negative
Test System: AMES SALMONELLA TYPHIMURIUM, Strain/Indicator: TA104, Metabolic Activation: NONE, Method: PREINCUBATION
  mutagenic call: active; positive
Test System: AMES SALMONELLA TYPHIMURIUM, Strain/Indicator: TA104, Metabolic Activation: RAT, LIVER, S-9, PHENOBARBITAL AND 5,6-BENZOFLAVONE, Method: PREINCUBATION
  mutagenic call: active; positive
Test System: AMES SALMONELLA TYPHIMURIUM, Strain/Indicator: TA1535, Metabolic Activation: HAMSTER LIVER S-9, AROCLOR 1254, Method: STANDARD PLATE
  mutagenic call: inactive; negative
Test System: AMES SALMONELLA TYPHIMURIUM, Strain/Indicator: TA1535, Metabolic Activation: NONE, Method: PREINCUBATION
  mutagenic call: inactive; negative
Test System: AMES SALMONELLA TYPHIMURIUM, Strain/Indicator: TA1535, Metabolic Activation: NONE, Method: STANDARD PLATE
  mutagenic call: inactive; negative
Test System: AMES SALMONELLA TYPHIMURIUM, Strain/Indicator: TA1535, Metabolic Activation: RAT LIVER S-9, AROCLOR 1254, Method: STANDARD PLATE
  mutagenic call: inactive; negative
Test System: AMES SALMONELLA TYPHIMURIUM, Strain/Indicator: TA1535, Metabolic Activation: RAT, LIVER, S-9, PHENOBARBITAL AND 5,6-BENZOFLAVONE, Method: PREINCUBATION
  mutagenic call: inactive; negative
Test System: AMES SALMONELLA TYPHIMURIUM, Strain/Indicator: TA1537, Metabolic Activation: HAMSTER LIVER S-9, AROCLOR 1254, Method: STANDARD PLATE
  mutagenic call: inactive; negative
Test System: AMES SALMONELLA TYPHIMURIUM, Strain/Indicator: TA1537, Metabolic Activation: NONE, Method: PREINCUBATION
  mutagenic call: inactive; negative
Test System: AMES SALMONELLA TYPHIMURIUM, Strain/Indicator: TA1537, Metabolic Activation: NONE, Method: STANDARD PLATE
  mutagenic call: inactive; negative
Test System: AMES SALMONELLA TYPHIMURIUM, Strain/Indicator: TA1537, Metabolic Activation: RAT LIVER S-9, AROCLOR 1254, Method: STANDARD PLATE
  mutagenic call: inactive; negative
Test System: AMES SALMONELLA TYPHIMURIUM, Strain/Indicator: TA1537, Metabolic Activation: RAT, LIVER, S-9, PHENOBARBITAL AND 5,6-BENZOFLAVONE, Method: PREINCUBATION
  mutagenic call: active; positive
Test System: AMES SALMONELLA TYPHIMURIUM, Strain/Indicator: TA1538, Metabolic Activation: NONE, Method: PREINCUBATION
  mutagenic call: inactive; negative
Test System: AMES SALMONELLA TYPHIMURIUM, Strain/Indicator: TA1538, Metabolic Activation: RAT, LIVER, S-9, PHENOBARBITAL AND 5,6-BENZOFLAVONE, Method: PREINCUBATION
  mutagenic call: inactive; negative
Test System: AMES SALMONELLA TYPHIMURIUM, Strain/Indicator: TA2637, Metabolic Activation: NONE, Method: PREINCUBATION
  mutagenic call: active; positive
Test System: AMES SALMONELLA TYPHIMURIUM, Strain/Indicator: TA2637, Metabolic Activation: RAT, LIVER, S-9, PHENOBARBITAL AND 5,6-BENZOFLAVONE, Method: PREINCUBATION
  mutagenic call: active; positive
Test System: AMES SALMONELLA TYPHIMURIUM, Strain/Indicator: TA2638, Metabolic Activation: NONE, Method: STANDARD PLATE
  mutagenic call: inactive; negative
Test System: Ames Salmonella typhimurium, Strain/Indicator: TA102, Metabolic Activation: None, Method: Preincubation
  mutagenic call: inactive; negative
Test System: Ames Salmonella typhimurium, Strain/Indicator: TA102, Metabolic Activation: Rat, Liver, S-9, Aroclor 1254 in 0.154 M KCl, Method: Preincubation
  mutagenic call: inactive; negative
Test System: E. COLI, Strain/Indicator: WP2 (PKM101), Metabolic Activation: NONE, Method: STANDARD PLATE
  mutagenic call: inactive; negative
Test System: E. COLI, Strain/Indicator: WP2 UVRA (PKM101), Metabolic Activation: NONE, Method: STANDARD PLATE
  mutagenic call: inactive; negative
Test System: MOUSE LYMPHOMA, Strain/Indicator: L5178Y (TK+/TK-), Metabolic Activation: NONE, Method: SUSPENSION/PLATE
  mutagenic call: inactive; positive. reevaluation of results: negative
Test System: MOUSE LYMPHOMA, Strain/Indicator: L5178Y (TK+/TK-), Metabolic Activation: RAT, LIVER, S-9, AROCLOR 1254, Method: SUSPENSION/PLATE
  mutagenic call: active; positive. reevaluation of results: equivocal
